Eight molecules from US20260041095A1, “A PRESERVATION METHOD” (AnalytiCon Discovery - Zweigniederlassung der BRAIN Biotech …, priority 2022, published 2026) can be followed below.

Converted amounts (≈) assume the structure as drawn.

Common to all, as to format: cell-based
The subject of test [1] is Zygosaccharomyces bailli SUN07. Nature of the test: Antimicrobial activity (MIC), Zygosaccharomyces bailli SUN07. The following applies: potato dextrose broth pH 3.8, visual evaluation; for MIC: read-out: Minimal Inhibitory Concentration (MIC).
Test [2] deals with Saccharomyces cerevisiae SUN06. In words: Antimicrobial activity (MIC), Saccharomyces cerevisiae SUN06. The following applies: potato dextrose broth pH 3.8, visual evaluation; for MIC: read-out: Minimal Inhibitory Concentration (MIC).
In test [3] the test system is Saccharomyces cerevisiae SUN01. In words: Antimicrobial activity (MIC), Saccharomyces cerevisiae SUN01. The following applies: potato dextrose broth pH 3.8, visual evaluation; for MIC: read-out: Minimal Inhibitory Concentration (MIC).
In test [4] the test system is Zygosaccharomyces bailli SUN02. Nature of the test: Antimicrobial activity (MIC), Zygosaccharomyces bailli SUN02. The following applies: potato dextrose broth pH 3.8, visual evaluation; for MIC: read-out: Minimal Inhibitory Concentration (MIC).
Test [5] has as its system Neosartorya fischeri SUN09. Nature of the test: Antimicrobial activity (MIC), Neosartorya fischeri SUN09. The following applies: potato dextrose broth pH 3.8, visual evaluation; for MIC: Aspergillus fischeri, read-out: Minimal Inhibitory Concentration (MIC).
The next test deals with Penicillium paneum SUN04. Nature of the test: Antimicrobial activity (MIC), Penicillium paneum SUN04. The following applies: potato dextrose broth pH 3.8, visual evaluation; for MIC: read-out: Minimal Inhibitory Concentration (MIC).
Test [6] relates to Candida parapsilosis SUN05. Nature of the test: Antimicrobial activity (MIC), Candida parapsilosis SUN05. The following applies: potato dextrose broth pH 3.8, visual evaluation; for MIC: Lodderomyces parapsilosis, read-out: Minimal Inhibitory Concentration (MIC).
A further test has as its system Byssochlamys nivea SUN10. In words: Antimicrobial activity (MIC), Byssochlamys nivea SUN10. The following applies: potato dextrose broth pH 3.8, visual evaluation; for MIC: Paecilomyces niveus, read-out: Minimal Inhibitory Concentration (MIC).
A further test has as its system Brettanomyces sp SUN08. Nature of the test: Antimicrobial activity (MIC), Brettanomyces sp SUN08. The following applies: potato dextrose broth pH 3.8, visual evaluation; for MIC: read-out: Minimal Inhibitory Concentration (MIC).
The subject of another test is Asaia siamensis SUN03. In words: Antimicrobial activity (MIC), Asaia siamensis SUN03. The following applies: potato dextrose broth pH 3.8, visual evaluation; for MIC: read-out: Minimal Inhibitory Concentration (MIC).
Test [7] relates to Alicyclobacillus acidoterrestris DSM 2498. Nature of the test: Antimicrobial activity (MIC), Alicyclobacillus acidoterrestris DSM 2498. The following applies: DSM2498, potato dextrose broth pH 3.8, visual evaluation, read-out: Minimal Inhibitory Concentration (MIC).
Test [8] relates to Bacillus subtilis ATCC 6633. In words: Antimicrobial activity (MIC), Bacillus subtilis ATCC 6633. The following applies: ATCC6633, potato dextrose broth pH 3.8, visual evaluation, read-out: Minimal Inhibitory Concentration (MIC).
In test [9] the test system is Leuconostoc lactis DSM 20202. Nature of the test: Antimicrobial activity (MIC), Leuconostoc lactis DSM 20202. The following applies: DSM20202, potato dextrose broth pH 3.8, visual evaluation, read-out: Minimal Inhibitory Concentration (MIC).

`CCCCCC(O)CC(=O)O[C@@H]1[C@@H](O)[C@H](O[C@H]2[C@H](O)[C@@H](O)[C@H](OCC(O)CCCCCCCCCCCCC(O)C(=O)O)O[C@@H]2COC(C)=O)O[C@H](CO)[C@H]1O` (stereo partly drawn) [NP-018218]: the “Minimal Inhibitory Concentration (MIC)” value (in test [1]; in test [3]; in [4]; in [5]; in the test on Penicillium paneum SUN04; in [6]) was “inact” each time. Moreover, the “Minimal Inhibitory Concentration (MIC)” value in the test with Byssochlamys nivea SUN10, in the test on Brettanomyces sp SUN08 and with Asaia siamensis SUN03 was “inact” throughout. Besides, the MIC in [2] was 500 mg/L (≈ 615 µM).
In the case of `O=C(O)OC[C@H]1O[C@@H](OCC(O)CCCCCCCCCCCCC(O)C(=O)O)[C@H](O)[C@@H](O)[C@@H]1O[C@@H]1O[C@H](CO)[C@@H](O)[C@H](O)[C@H]1O` (stereo partly drawn) [NP-018243], the MIC was 250 mg/L (≈ 372 µM) in test [1]; 250 mg/L (≈ 372 µM) in test [2]; 250 mg/L (≈ 372 µM) in test [3]; 250 mg/L (≈ 372 µM) in test [4]; no more than 125 mg/L in [5]; no more than 125 mg/L in the test with Penicillium paneum SUN04. Moreover, the MIC amounted to 500 mg/L (≈ 743 µM) in test [6], 250 mg/L (≈ 372 µM) with Byssochlamys nivea SUN10 and 250 mg/L (≈ 372 µM) in the test with Brettanomyces sp SUN08. Moreover, the “Minimal Inhibitory Concentration (MIC)” value in the test on Asaia siamensis SUN03 is “inact”.
As for `O=C(O)OC[C@H]1O[C@@H](OCC(O)CCCCCCCCCCCCC(O)C(=O)O)[C@H](O)[C@@H](O)[C@@H]1O[C@@H]1O[C@H](CO)[C@@H](O)[C@H](OC(=O)CC(O)CCO)[C@H]1O` (stereo partly drawn) [NP-018249], the MIC in test [1], in [3] and in test [4] was 500 mg/L (≈ 634 µM) each time. Moreover, the “Minimal Inhibitory Concentration (MIC)” value (in test [2]; in test [5]; with Penicillium paneum SUN04; in test [6]; in the test on Byssochlamys nivea SUN10; in the test on Brettanomyces sp SUN08) was “inact” each time. Moreover, the “Minimal Inhibitory Concentration (MIC)” value in the test on Asaia siamensis SUN03 is given as “inact”.
Regarding `O=C(O)CC(O)CCCCCCCCCCCC(O)CO[C@@H]1O[C@H](COC(=O)O)[C@@H](O[C@@H]2O[C@H](CO)[C@@H](O)[C@H](O)[C@H]2O)[C@H](O)[C@H]1O` (stereo partly drawn) [NP-018428], the “Minimal Inhibitory Concentration (MIC)” value (in [1]; in test [2]; in test [3]; in test [4]; with Penicillium paneum SUN04; in test [6]) was “inact” throughout. The “Minimal Inhibitory Concentration (MIC)” value in the test on Byssochlamys nivea SUN10, in the test with Brettanomyces sp SUN08 and in the test with Asaia siamensis SUN03 was “inact” each time. Besides, the MIC in [5] was 500 mg/L (≈ 743 µM).
For the molecule `CCCC(O)CC(=O)OC[C@H]1O[C@@H](O[C@H]2[C@H](O)[C@@H](O)[C@H](OCC(O)CCCCCCCCCCCCC(O)C(=O)O)O[C@@H]2COC(C)=O)[C@H](O)[C@@H](O)[C@@H]1O` (stereo partly drawn) [NP-018459], the MIC (in test [1]; in test [5]; in the test on Penicillium paneum SUN04) was 500 mg/L (≈ 637 µM) each time. The “Minimal Inhibitory Concentration (MIC)” value (in test [2]; in test [3]; in test [4]; in [6]; in the test with Byssochlamys nivea SUN10; in the test on Brettanomyces sp SUN08) was “inact” in each case. The “Minimal Inhibitory Concentration (MIC)” value in the test with Asaia siamensis SUN03 is given as “inact”.
Consider `CCCCCC(O)CC(=O)O[C@H]1[C@H](O[C@H]2[C@H](O)[C@@H](O)[C@H](OCC(O)CCCCCCCCCCCCCC(=O)O)O[C@@H]2COC(C)=O)O[C@H](CO)[C@@H](O)[C@@H]1O` (stereo partly drawn) [NP-018752], for which the MIC in [7] was found to be 4 mg/L (≈ 5.02 µM); in [1], 500 mg/L (≈ 627 µM); in [2] it was 500 mg/L (≈ 627 µM); in test [4], 500 mg/L (≈ 627 µM); with Byssochlamys nivea SUN10, 500 mg/L (≈ 627 µM). For the same molecule, the “Minimal Inhibitory Concentration (MIC)” value (in test [3]; in [5]; in the test on Penicillium paneum SUN04; in [6]; with Brettanomyces sp SUN08; in the test with Asaia siamensis SUN03) was “inact” throughout.
As for `CCCCCCCC(=O)O[C@H]1[C@H](O[C@H]2[C@H](O)[C@@H](O)[C@H](OCC(O)CCCCCCCCCCCCC(O)C(=O)O)O[C@@H]2COC(C)=O)O[C@H](CO)[C@@H](O)[C@@H]1O` (stereo partly drawn) [NP-018753], the MIC in [1] is no more than 31.2 mg/L; in [2], no more than 31.2 mg/L; in test [3], no more than 31.2 mg/L; in test [4], no more than 31.2 mg/L; in test [5] it was no more than 31.2 mg/L; with Penicillium paneum SUN04, 500 mg/L (≈ 627 µM). Besides, the MIC in test [6] was no more than 31.2 mg/L; with Byssochlamys nivea SUN10, no more than 31.2 mg/L; with Brettanomyces sp SUN08 it was 500 mg/L (≈ 627 µM); in the test with Asaia siamensis SUN03, greater than 500 mg/L.
With `O=C(O)OC[C@H]1O[C@@H](OCC(O)CCCCCCCCCCC/C=C(\O)C(=O)O)[C@H](O)[C@@H](O)[C@@H]1O[C@@H]1O[C@H](CO)[C@@H](O)[C@H](O)[C@H]1OC(=O)CC(O)CCO` (stereo partly drawn) [NP-018756], the MIC in [7] came out at 16 mg/L (≈ 20.3 µM); in [1], 250 mg/L (≈ 318 µM); in [2], 250 mg/L (≈ 318 µM); in test [3], 250 mg/L (≈ 318 µM); in test [8] it was 600 mg/L (≈ 763 µM); in [4] it was 250 mg/L (≈ 318 µM). In addition, the MIC in [5] is no more than 125 mg/L; in the test with Penicillium paneum SUN04 it was 250 mg/L (≈ 318 µM); in [6] it was 500 mg/L (≈ 635 µM); in the test on Byssochlamys nivea SUN10, no more than 125 mg/L; in the test with Brettanomyces sp SUN08, 250 mg/L (≈ 318 µM); in test [9], 600 mg/L (≈ 763 µM). Further, the MIC in the test with Asaia siamensis SUN03 is greater than 500 mg/L.
